# Experiments:
# [1] = test system: renal progenitor cells (lhx1a expression); test: In situ hybridization for lhx1a expression in 10-somite embryos (renal progenitor cell expansion); type: in vivo; on lhx1a expansion class, 200 nM: key: effective (+); partially effective (+/−); ineffective (−); Analogs that killed all embryos at a given concentration before reaching 10 somites are listed as XX; on lhx1a expansion class, 400 nM: key: effective (+); partially effective (+/−); ineffective (−); Analogs that killed all embryos at a given concentration before reaching 10 somites are listed as XX; on lhx1a expansion class, 800 nM: key: effective (+); partially effective (+/−); ineffective (−); Analogs that killed all embryos at a given concentration before reaching 10 somites are listed as XX
# Procedure, shortened: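 Zebrafish embryos treated with compound, then colorimetric whole-mount in situ hybridization for lhx1a mRNA at 10-somite stage (hybridization 65 °C). Percent embryos with expanded kidney field counted manually; EC50 read as the 50% point of the plotted curve.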
# [2] = test system: CD1 mice, folic acid-induced injury; test: Folic acid-induced AKI; type: in vivo, mouse; conditions: daily IP 50 mg/ml in 30% PEG300 from 24 hrs after folic acid; after 15 days
# Protocol: FIG. 41 are photomicrographs showing the results of an AKI model using folic acid-induced injury. Folic acid is administered to CD1 mice (n=6/group) intraperitoneally (IP) at 250 mg/ml in 0.3M NaHCO3. Compound UPHD-00022 was injected daily IP at […] in 30% PEG300 vehicle starting 24 hrs after folic acid treatment. Kidney tissue was stained using Trichrome and Sirus Red stained after 15 days. Blue in trichrome and the red in sirus red indicates fibrotic (scar) tissue.
# [3] = test system: mouse models of unilateral ureteral obstruction (UUO); test: Unilateral ureteral obstruction (UUO); type: in vivo; conditions: IP days 0 to 6, kidneys harvested at day 7
# From the text: The model of unilateral ureteral obstruction generates progressive renal fibrosis. Surgically created UUO can be experimentally manipulated with respect to timing, severity, and duration, while reversal of the obstruction permits the study of recovery.
# FIG. 47 represents the results of the testing of compounds UPHD-00022, UPHD-00025 (PTBA), UPHD-00029, UPHD-00036, and UPHD-00186, for their efficacy in mouse models of unilateral ureteral obstruction (UUO) as follows: in the UUO models, one ureter was ligated for 7 days and compounds were delivered via IP for days 0 to 6. At day 7 kidneys were harvested for Sirius red staining. […] Therefore, in the models tested, the only compound proven to be effective in all models and with significant delayed onset of treatment is UPHD-186.
# [4] = lhx1a in situ hybridization, includes repeats* and recounts
compound,measurement,setting,value
"COC(=O)CCCSc1ccc(OC)cc1 [UPHD-00022, methyl 4-[(4-methoxyphenyl)sulfanyl]butanoate]","lhx1a expansion class, 200 nM",[1]; 200 nM from 2 hpf,−
same,"lhx1a expansion class, 400 nM",[1]; 400 nM from 2 hpf,+/−
same,"lhx1a expansion class, 800 nM",[1]; 800 nM from 2 hpf,+
same,responders at 0.4 µM,"[1]; Danio rerio, 400 nM, read-out: embryos with expanded lhx1a expression (% expansion)",29%
same,responders at 0.8 µM,"[1]; Danio rerio, 800 nM, read-out: embryos with expanded lhx1a expression (% expansion)",57%
same,"Expansion of Cells, 800 nM",[1]; [4],57%
same,"Expansion of Cells, 1.5 μM",[1]; [4],91%
same,"Expansion of Cells, 3 μM",[1]; [4],100%
same,renal fibrosis (Trichrome and Sirus Red),[2],a reduction in fibrosis is seen
same,fibrosis (Sirius red) and expression of fibrosis markers in UUO kidney,[3],reduce both fibrosis and expression of fibrosis markers

# — patent publication US10233201B2, “Class of HDAC inhibitors expands the renal progenitor cells population and improves the rate of recovery from acute kidney injury” (University of Pittsburgh—Of the Commonwealth System of …, priority 2012, dated 2019)
